According to PMC10634346 (Cancer Research Communications, 2023):
Like-named read-outs stand apart in the source and are kept apart here.

Legend:
[1] = test system: MYC and MCL1 mRNA in SU-DHL-4 cells; assay: In vitro washout, MYC and MCL1 mRNA qPCR, SU-DHL-4; format: cell-based, human; conditions: 1 µmol/L, 4 h treatment then washout
Protocol: Evaluation of the pharmacodynamic extent and duration of CDK9 inhibition were performed in vitro using the human DLBCL cell lines SU-DHL-4 and SU-DHL-10, harboring MYC amplification and MYC overexpression with P57T mutation, respectively. Cells were seeded 18 hours prior to treatment for 4 hours with one of three CDK9 inhibitors, enitociclib (0.25 and1 µmol/L), atuveciclib (1 µmol/L) or KB-0742 (1 µmol/L), cells were washed, and incubation continued until 48 hours posttreatment. Samples were collected before treatment (−4), immediately after treatment (0), and at 1, 2, 4, 8, 12, 16, 24, and 48 hours after washout for RNA sequencing (RNA-seq), qPCR, and Western blotting analyses. Total RNA was extracted from blood of patients and cell lines using RNeasy Plus Mini Kit (QIAGEN, #74136) and cDNA prepared with the Maxima First Strand cDNA Synthesis Kit for RT-PCR (Thermo Fisher Scientific, K1642) according to manufacturer's instructions. The integrity of purified total RNA was evaluated using an Agilent 2100 Bioanalyzer system and RNA 6000 Nano Kit (Agilent, #5067-1511). […] MYC and MCL1 mRNA levels were measured by qPCR in vitro and in vivo, using a Taqman qPCR system (Thermo Fisher Scientific), TaqMan Fast Universal PCR Master Mix (2X) no AmpErase (#4352042) and TaqMan probes for MYC (Hs00153408_m1) and MCL1 (Hs03043899_m1). RNA-seq data were analyzed using DESeq2 ([35]).

[2] = test system: MCL1 mRNA in SU-DHL-10 cells; assay: In vitro washout, MCL1 mRNA qPCR, SU-DHL-10; format: cell-based, human; conditions: 4 h treatment then washout, for 16 to 48 hours after treatment
Protocol: (§1) Evaluation of the pharmacodynamic extent and duration of CDK9 inhibition were performed in vitro using the human DLBCL cell lines SU-DHL-4 and SU-DHL-10, harboring MYC amplification and MYC overexpression with P57T mutation, respectively. Cells were seeded 18 hours prior to treatment for 4 hours with one of three CDK9 inhibitors, enitociclib (0.25 and1 µmol/L), atuveciclib (1 µmol/L) or KB-0742 (1 µmol/L), cells were washed, and incubation continued until 48 hours posttreatment. Samples were collected before treatment (−4), immediately after treatment (0), and at 1, 2, 4, 8, 12, 16, 24, and 48 hours after washout for RNA sequencing (RNA-seq), qPCR, and Western blotting analyses. Total RNA was extracted from blood of patients and cell lines using RNeasy Plus Mini Kit (QIAGEN, #74136) and cDNA prepared with the Maxima First Strand cDNA Synthesis Kit for RT-PCR (Thermo Fisher Scientific, K1642) according to manufacturer's instructions. The integrity of purified total RNA was evaluated using an Agilent 2100 Bioanalyzer system and RNA 6000 Nano Kit (Agilent, #5067-1511). Differential gene expression analysis was performed (Fios Genomics) from RNA-seq data (Discovery Life Sciences). MYC and MCL1 mRNA levels were measured by qPCR in vitro and in vivo, using a Taqman qPCR system (Thermo Fisher Scientific), TaqMan Fast Universal PCR Master Mix (2X) no AmpErase (#4352042) and TaqMan probes for MYC (Hs00153408_m1) and MCL1 (Hs03043899_m1). RNA-seq data were analyzed using DESeq2 ([35]).

[3] = test system: Myc protein in SU-DHL-10 tumors; assay: Pharmacodynamics in SU-DHL-10 xenograft tumors, Myc protein; format: in vivo, C.B-17 SCID mice; conditions: single dose; within 4 to 8 hours postdose
Protocol: (§2) The levels of p-Ser2, p-Ser5 and total RNA polymerase II, Myc, Mcl-1, cleaved PARP (cPARP), and cleaved Caspase 3 were assessed by Western blotting and quantified near-infrared detection and background corrected quantification of fluorescence intensity on an Odyssey Imaging System with IRDye secondary antibodies (LI-COR Biosciences). For quantification, the protein levels were normalized to GAPDH or HSP90, expressed as a ratio to DMSO or vehicle control at matched timepoints. The normalized relative protein levels of p-Ser2 were used for a treatment effect comparison by performing an ANOVA using PROC MIXED in SAS. The ANOVA model included treatment, timepoints and their interactions as fixed effects. The least square means (LSM), differences between the LSMs and associated P values were generated. The following primary antibodies were used: Rpb1 NTD (D8L4Y) rabbit antibody [Cell Signaling Technology (CST), #14958], anti-RNA polymerase II subunit B1 (phospho CTD Ser-2, clone 3E10) rat antibody (Merck, 04-1571-I), recombinant anti-c-MYC rabbit antibody (Y69; Abcam, #ab32072), MCL1 (D5V5L) rabbit antibody (CST, #39224), cleaved-PARP (Asp214) (E2T4K) mouse antibody (CST, #32563), HSP90 (C45G5) rabbit antibody (CST, #4877), and GAPDH mouse antibody (Zytomed Systems, #ZYT-RGM2-6C5). […]

SU-DHL-4 = assay: CellTiter-Glo cell viability, SU-DHL-4; format: cell-based; conditions: Homo sapiens
Protocol: Human DLBCL cell lines SU-DHL-4 (#ACC 495) and SU-DHL-10 (#ACC 576) were obtained from DSMZ (German Collection of Microorganisms and Cell Cultures). The supplier used PCR-based DNA profiling of polymorphic short tandem repeats for authentication and Mycoplasma testing prior to shipment. Cells were cultured in suspension at 37°C in a humidified atmosphere containing 5% CO2. CDK9 inhibitors KB-0742 (MedChemExpress, #HY-137478A), enitociclib, and atuveciclib ([…] Pharma, Inc.) were used. A subset of 35 lymphoma cell lines is from a 500-cell line panel where the effect of enitociclib on cell viability using CellTiter-Glo luminescent cell viability was determined (OmniScreen, CrownBioscience). Genetic status and gene expression level for MYC and MCL1 was obtained from CrownBioscience.

[4] = Clinical pharmacokinetics, plasma LC/MS-MS (NCT02635672); format: in vivo, human; conditions: for Cmax / half-life: human, plasma
Protocol: Fifteen patients with refractory or relapsed DH-DLBCL or other MYC+ NHL were treated with enitociclib (30 mg, 21-day cycle, once weekly x3) as a 30-minute intravenous infusion on study days 1, 8, and 15 (NCT02635672). Longitudinal gene expression levels were analyzed by RNA-seq, and enitociclib plasma concentrations were measured using LC/MS-MS. The clinical study protocol was approved by the Institutional Review Board of participating institutions and complied with the Declaration of Helsinki, current Good Clinical Practice guidelines, and local laws and regulations. Written informed consent was provided by all participants prior to the initiation of any study-specific procedure.
All pharmacokinetic parameters were calculated by noncompartmental methods as described previously ([36]) using WinNonlin v5.3 (Certara LP). Pharmacokinetic/pharmacodynamic modeling was performed using SAAM II v2.3.2 (The Epsilon Group). Pooled pharmacokinetic data from all patients [n = 15 for single dose, cycle 1 day 1 (C1D1) and n = 11 for multiple doses, cycle 1 day 15 (C1D15)] were characterized using a one-compartment model with intravenous dosing. Subsequently, the pharmacokinetic/pharmacodynamic relationship of enitociclib plasma concentrations to MCL1 and MYC mRNA change was characterized using an indirect response model ([37]) on pooled biomarker data where enitociclib concentrations inhibit the formation of MCL1 or MYC mRNA as described by the following equation: […]

[5] = test system: cleaved PARP in SU-DHL-10 tumors; assay: Pharmacodynamics in SU-DHL-10 xenograft tumors, cleaved PARP; format: in vivo, C.B-17 SCID mice; conditions: single dose
Protocol: as §2

[6] = test system: MYC mRNA in SU-DHL-10 cells; assay: In vitro washout, MYC mRNA qPCR, SU-DHL-10; format: cell-based, human; conditions: 4 h treatment then washout, for 16 to 48 hours after treatment
Protocol: as §1

## COc1cc(F)ccc1-c1cc(Nc2cc(CS(C)(=N)=O)ccn2)ncc1F (centres unmarked) [enitociclib]
[1]
  MYC and MCL1 mRNA levels over the 48-hour time course (in words): durable depletion
[2]
  inhibition of MCL1 mRNA levels: approximately 75%
[3]
  reduction of Myc protein levels in tumors: 50%
SU-DHL-4
  IC50: 43 nM
[4]; intravenous, 22.5 mg, subject 3, dose lowered from 30 to 22.5 mg, not included in average, read-out: Multiple dose C max
  Cmax: 592 ng/mL
[4]; intravenous, 22.5 mg, subject 3, dose lowered from 30 to 22.5 mg, not included in average, read-out: Multiple dose t1/2 (converted)
  half-life: 2.53 h
[4]; intravenous, 30 mg, patients treated with multiple doses, read-out: mean t1/2 (converted)
  half-life: 5.56 h
[4]; iv, 30 mg, patients, 30 mg i.v. once weekly, read-out: Cmax
  Cmax: 1750 nM
[4]; patients, 30 mg i.v. once weekly, Cmax x fu
  unbound Cmax: 117 nM
[5]
  cleaved PARP in tumors (in words): increase in cleaved PARP
[6]
  inhibition of MYC mRNA levels: approximately 75%
